Patent publication US9242970B2 (ACTELION PHARMACEUTICALS LTD., priority 2010, dated 2016)
pIC50: −log10 of the molar value. Read-outs that look alike come from different tables or passages of the source.

Experiments:
human orexin-1 receptor = human orexin-1 receptor (Homo sapiens (Human), UniProt O43613); assay: In vitro assay: intracellular calcium measurements (FLIPR), antagonistic activity; assay type: cell-based; settings: CHO cells, 3 nM orexin-A, marked values are geometric means of n = 2-6, read-out: IC50 OX1
Chain of human orexin-1 receptor (O43613 whole entry): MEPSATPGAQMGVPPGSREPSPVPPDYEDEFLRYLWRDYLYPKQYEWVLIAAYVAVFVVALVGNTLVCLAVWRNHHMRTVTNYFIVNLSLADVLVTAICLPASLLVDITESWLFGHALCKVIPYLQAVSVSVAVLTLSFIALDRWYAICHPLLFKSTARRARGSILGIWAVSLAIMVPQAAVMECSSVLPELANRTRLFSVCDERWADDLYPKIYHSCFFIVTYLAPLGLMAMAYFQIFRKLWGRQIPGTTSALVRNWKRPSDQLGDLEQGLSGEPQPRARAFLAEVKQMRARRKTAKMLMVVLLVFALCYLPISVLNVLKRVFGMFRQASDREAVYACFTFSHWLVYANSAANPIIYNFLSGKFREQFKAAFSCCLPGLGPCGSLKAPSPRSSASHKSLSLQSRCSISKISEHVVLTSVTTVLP
Protocol: (§1) In Vitro Assay: Intracellular Calcium Measurements:
(§2) Chinese hamster ovary (CHO) cells expressing the human orexin-1 receptor and the human orexin-2 receptor, respectively, are grown in culture medium (Ham F-12 with L-Glutamine) containing 300 µg/ml G418, 100 U/ml penicillin, 100 µg/ml streptomycin and 10% heat inactivated fetal calf serum (FCS). The cells are seeded at 20,000 cells/well into 384-well black clear bottom sterile plates (Greiner). The seeded plates are incubated overnight at 37° C. in 5% CO2.
(§3) Fluorescence is measured for each well at 1 second intervals, and the height of each fluorescence peak is compared to the height of the fluorescence peak induced by 3 nM orexin-A with vehicle in place of antagonist. […] Optimized conditions were achieved by adjustment of pipetting speed and cell splitting regime. The calculated IC50 values may fluctuate depending on the daily cellular assay performance. Fluctuations of this kind are known to those skilled in the art.

human orexin-2 receptor = human orexin-2 receptor (Homo sapiens (Human), UniProt O43614); assay: as above; assay type: cell-based
Chain of human orexin-2 receptor (O43614 whole entry): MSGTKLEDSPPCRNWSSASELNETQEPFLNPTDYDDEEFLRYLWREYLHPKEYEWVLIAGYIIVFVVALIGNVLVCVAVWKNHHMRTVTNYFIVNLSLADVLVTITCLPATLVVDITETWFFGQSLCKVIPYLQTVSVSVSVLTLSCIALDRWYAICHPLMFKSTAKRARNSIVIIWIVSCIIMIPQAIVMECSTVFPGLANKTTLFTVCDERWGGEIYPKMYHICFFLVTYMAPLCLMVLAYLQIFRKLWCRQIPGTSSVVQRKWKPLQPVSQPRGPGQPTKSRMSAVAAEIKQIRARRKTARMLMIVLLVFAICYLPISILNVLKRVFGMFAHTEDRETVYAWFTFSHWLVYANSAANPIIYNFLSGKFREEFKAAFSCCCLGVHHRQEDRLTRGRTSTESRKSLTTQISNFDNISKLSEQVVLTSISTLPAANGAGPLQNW
Protocol: as §1, §2, §3

[1] = CHO cells, 3 nM orexin-A, compound incubation 120 min, marked values are geometric means of n = 2-6, read-out: IC50 OX2

| SMILES | pIC50 (human orexin-1 receptor; compound incubation 120 min) | pIC50 (human orexin-2 receptor; [1]) | pIC50 (human orexin-2 receptor) | pIC50 (human orexin-1 receptor; compound incubation time of 10 min) | pIC50 (human orexin-2 receptor; CHO cells, 3 nM orexin-A, compound incubation time of 10 min, marked values are geometric means of n = 2-6, read-out: IC50 OX2) |
| --- | --- | --- | --- | --- | --- |
| COc1ccc2ccccc2c1[C@@H]1C[C@H](Cl)C(=O)N1Cc1ccc(OC(F)(F)F)cc1 (racemic) [Example 316, rac-(3S*,5S*)-3-chloro-5-(2-methoxynaphthalen-1-yl)-1-(4-(trifluoromethoxy)benzyl)pyrrolidin-2-one] | 6.48 | 5.98 |  |  |  |
| COc1ccc(Cl)c(OC)c1[C@@H]1C[C@H](Cl)C(=O)N1Cc1ccc(OC(F)(F)F)cc1 (racemic) [Example 318, rac-(3S*,5S*)-3-chloro-5-(3-chloro-2,6-dimethoxyphenyl)-1-(4-(trifluoromethoxy)benzyl)pyrrolidin-2-one] | 6.78 | 6.35 |  |  |  |
| COc1ccc(Cl)c(OC)c1[C@@H]1C[C@H](F)C(=O)N1Cc1ccc(OC(F)(F)F)cc1 (racemic) [Example 319, rac-(3S*,5S*)-5-(3-chloro-2,6-dimethoxyphenyl)-3-fluoro-1-(4-(trifluoromethoxy)benzyl)pyrrolidin-2-one] | 6.01 | 5.99 |  |  |  |
| COc1cccc(F)c1[C@@H]1C[C@@H](Cl)C(=O)N1Cc1ccc(OC(F)(F)F)cc1 (racemic) [Example 324, rac-(3R*,5S*)-3-chloro-5-(2-fluoro-6-methoxyphenyl)-1-(4-(trifluoromethoxy)benzyl)pyrrolidin-2-one] | 6.01 | 5.92 |  |  |  |
| COc1cccc(C)c1[C@@H]1C[C@H](Cl)C(=O)N1Cc1ccc(OC(F)(F)F)cc1 (racemic) [Example 326, rac-(3S*,5S*)-3-chloro-5-(2-methoxy-6-methylphenyl)-1-(4-(trifluoromethoxy)benzyl)pyrrolidin-2-one] | 5.82 | 6.90 |  |  |  |
| CCOc1c(F)cccc1[C@@H]1C[C@H](F)C(=O)N1Cc1ccc(OC(F)(F)F)cc1 (racemic) [Example 331, rac-(3S*,5S*)-5-(2-ethoxy-3-fluorophenyl)-3-fluoro-1-(4-(trifluoromethoxy)benzyl)pyrrolidin-2-one] | 5.94 | 6.36 |  |  |  |
| COc1ccc(F)c(OC)c1[C@@H]1C[C@H](F)C(=O)N1Cc1ccc(OC(F)(F)F)cc1 (racemic) [Example 332, rac-(3S*,5S*)-3-fluoro-5-(3-fluoro-2,6-dimethoxyphenyl)-1-(4-(trifluoromethoxy)benzyl)pyrrolidin-2-one] | 5.99 | 6.53 |  |  |  |
| CCOc1cccc(F)c1[C@@H]1C[C@@H](Cl)C(=O)N1Cc1ccc(OC(F)(F)F)cc1 (racemic) [Example 333, rac-(3R*,5S*)-3-chloro-5-(2-ethoxy-6-fluorophenyl)-1-(4-(trifluoromethoxy)benzyl)pyrrolidin-2-one] | 6.02 | 6.74 |  |  |  |
| CCOc1cccc(F)c1[C@@H]1C[C@@H](O)C(=O)N1Cc1ccc(OC(F)(F)F)cc1 (racemic) [Example 334, rac-(3R*,5S*)-5-(2-ethoxy-6-fluorophenyl)-3-hydroxy-1-(4-(trifluoromethoxy)benzyl)pyrrolidin-2-one] | 5.67 | 7.48 |  |  |  |
| CCOc1cc(F)ccc1[C@@H]1C[C@@H](O)C(=O)N1Cc1ccc(OC(F)(F)F)cc1 (racemic) [Example 335, rac-(3R*,5S*)-5-(2-ethoxy-4-fluorophenyl)-3-hydroxy-1-(4-(trifluoromethoxy)benzyl)pyrrolidin-2-one] | 5.27 | 5.87 |  |  |  |
| CCOc1ccc(F)c(F)c1[C@@H]1C[C@H](F)C(=O)N1Cc1ccc(OC(F)(F)F)cc1 (racemic) [Example 340, rac-(3S*,5S*)-5-(6-ethoxy-2,3-difluorophenyl)-3-fluoro-1-(4-(trifluoromethoxy)benzyl)pyrrolidin-2-one] | 6.01 | 7.77 |  |  |  |
| CCOc1cc(F)ccc1[C@@H]1C[C@@H](Cl)C(=O)N1Cc1ccc(OC(F)(F)F)cc1 (racemic) [Example 341] | 5.48 | 5.79 |  |  |  |
| CCOc1cccc(F)c1[C@@H]1C[C@H](F)C(=O)N1Cc1ccc(OC(F)(F)F)cc1 (racemic) [Example 342, rac-(3S*,5S*)-5-(2-ethoxy-6-fluorophenyl)-3-fluoro-1-(4-(trifluoromethoxy)benzyl)pyrrolidin-2-one] | 5.95 | 8.10 |  |  |  |
| CCOc1cccc(F)c1[C@@H]1C[C@H](Cl)C(=O)N1Cc1ccc(OC(F)(F)F)cc1 (racemic) [Example 343, rac-(3S*,5S*)-3-chloro-5-(2-ethoxy-6-fluorophenyl)-1-(4-(trifluoromethoxy)benzyl)pyrrolidin-2-one] | 6.22 | 7.82 |  |  |  |
| CCOc1cc(F)ccc1[C@@H]1C[C@H](Cl)C(=O)N1Cc1ccc(OC(F)(F)F)cc1 (racemic) [Example 345] | 6.13 |  | 6.34 |  |  |
| COc1cccc(OC)c1[C@@H]1C[C@@H](O)C(=O)N1Cc1ccc2oc3ccccc3c2c1 (racemic) [Example 357, rac-(3R*,5S*)-1-(dibenzo[b,d]furan-2-ylmethyl)-5-(2,6-dimethoxyphenyl)-3-hydroxypyrrolidin-2-one] | 7.70 | 8.40 |  |  |  |
| COc1cccc(OC)c1[C@@H]1C[C@H](Cl)C(=O)N1Cc1ccc2oc3ccccc3c2c1 (racemic) [Example 369, rac-(3S*,5S*)-3-chloro-1-(dibenzo[b,d]furan-2-ylmethyl)-5-(2,6-dimethoxyphenyl)pyrrolidin-2-one] | 8.70 | 8.30 |  |  |  |
| CCOc1cccc(F)c1[C@@H]1C[C@@H](O)C(=O)N1Cc1ccc(OC(F)(F)F)c(F)c1 (racemic) [Example 428, rac-(3R*,5S*)-5-(2-ethoxy-6-fluorophenyl)-1-(3-fluoro-4-(trifluoromethoxy)benzyl)-3-hydroxypyrrolidin-2-one] | 5.77 | 7.28 |  |  |  |
| CCOc1cc(F)cc(F)c1[C@@H]1C[C@@H](O)C(=O)N1Cc1ccc(OC(F)(F)F)cc1 (racemic) [Example 431, rac-(3R*,5S*)-5-(2-ethoxy-4,6-difluorophenyl)-3-hydroxy-1-(4-(trifluoromethoxy)benzyl)pyrrolidin-2-one] | 5.83 | 6.59 |  |  |  |
| O=C1[C@H](O)C[C@@H](c2c(F)cccc2OCCF)N1Cc1ccc(OC(F)(F)F)cc1 (racemic) [Example 432, rac-(3R*,5S*)-5-(2-fluoro-6-(2-fluoroethoxy)phenyl)-3-hydroxy-1-(4-(trifluoromethoxy)benzyl)pyrrolidin-2-one] | 5.40 | 7.24 |  |  |  |
| CCOc1cccc(F)c1[C@@H]1C[C@@H](O)C(=O)N1Cc1ccccc1OC(F)(F)F (racemic) [Example 433, rac-(3R*,5S*)-5-(2-ethoxy-6-fluorophenyl)-3-hydroxy-1-(2-(trifluoromethoxy)benzyl)pyrrolidin-2-one] | 5.77 | 5.41 |  |  |  |
| CCOc1cccc(F)c1[C@@H]1C[C@H](F)C(=O)N1Cc1ccc(OC(F)(F)F)c(F)c1 (racemic) [Example 434, rac-(3S*,5S*)-5-(2-ethoxy-6-fluorophenyl)-3-fluoro-1-(3-fluoro-4-(trifluoromethoxy)benzyl)pyrrolidin-2-one] | 6.18 | 7.68 |  |  |  |
| CCOc1cccc(F)c1[C@@H]1C[C@H](Cl)C(=O)N1Cc1ccc(OC(F)(F)F)c(F)c1 (racemic) [Example 435, rac-(3S*,5S*)-3-chloro-5-(2-ethoxy-6-fluorophenyl)-1-(3-fluoro-4-(trifluoromethoxy)benzyl)pyrrolidin-2-one] | 6.18 | 7.52 |  |  |  |
| CCOc1cccc(Cl)c1[C@@H]1C[C@H](F)C(=O)N1Cc1ccc(OC(F)(F)F)cc1 (racemic) [Example 436, rac-(3S*,5S*)-5-(2-chloro-6-ethoxyphenyl)-3-fuoro-1-(4-(trifluoromethoxy)benzyl)pyrrolidin-2-one] | 6.02 | 7.51 |  |  |  |
| CCOc1cc(F)cc(F)c1[C@@H]1C[C@H](F)C(=O)N1Cc1ccc(OC(F)(F)F)cc1 (racemic) [Example 438, rac-(3S*,5S*)-5-(2-ethoxy-4,6-difluorophenyl)-3-fluoro-1-(4-(trifluoromethoxy)benzyl)pyrrolidin-2-one] | 6.04 | 7.43 |  |  |  |
| CCOc1cc(F)cc(F)c1[C@@H]1C[C@H](Cl)C(=O)N1Cc1ccc(OC(F)(F)F)cc1 (racemic) [Example 439, rac-(3S*,5S*)-3-chloro-5-(2-ethoxy-4,6-difluorophenyl)-1-(4-(trifluoromethoxy)benzyl)pyrrolidin-2-one] | 6.24 | 7.20 |  |  |  |
| COc1cccc(OC)c1C1CCCC(=O)N1Cc1cnc2ccccc2c1 (stereo not drawn) [Example 1, 6-(2,6-dimethoxyphenyl)-1-(quinolin-3-ylmethyl)piperidin-2-one] |  |  |  | 6.19 | 6.68 |
| COc1cccc(OC)c1C1CCCC(=O)N1Cc1ccc2sc(C)nc2c1 (stereo not drawn) [Example 2, 6-(2,6-dimethoxyphenyl)-1-((2-methylbenzo[d]thiazol-5-yl)methyl)piperidin-2-one] | 7.59 | 7.89 |  |  |  |
| COc1cccc(OC)c1C1CCCC(=O)N1Cc1ccc2ncccc2c1 (stereo not drawn) [Example 3, 6-(2,6-dimethoxyphenyl)-1-(quinolin-6-ylmethyl)piperidin-2-one] | 6.81 | 6.00 |  |  |  |
| COc1cccc(OC)c1C1CCCC(=O)N1Cc1cnc(OC(F)F)c(Cl)c1 (stereo not drawn) [Example 5, 1-((5-chloro-6-(difluoromethoxy)pyridin-3-yl)methyl)-6-(2,6-dimethoxyphenyl)piperidin-2-one] | 6.65 | 7.42 |  |  |  |
